Source: PubChem BioAssay AID651675 (Sanford-Burnham Center for Chemical Genomics, 2012)
Calls of active or inactive are those of the source.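 The calls were made as follows: active = compounds raising alpha-dystroglycan glycosylation signal with mean half-maximal concentration of 20 µM or lower; inactive = the rest.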

test system: Pro5-aDG cells, alpha-DG glycosylation, IIH6 AlphaLISA; experiment: alpha-DG glycosylation activators, analog potency, SAR follow-up, Pro5-aDG cells, AlphaLISA (AID 651675)

Question: For CNc1nc(-c2c[nH]c3ccccc23)cs1, which EC50 is on record?
Answer: 10.3 µM

Question: Which EC50 does the source give for N=c1n(CCN2CCCC2)c2ccccc2n1CC(=O)c1ccc(Cl)c(Cl)c1 here?
Answer: 24.2 µM (inactive)

Question: With CCc1cccc2c(-c3csc(NC)n3)c[nH]c12 as the compound, how does the EC50 read?
Answer: 3.99 µM

Question: Cn1c(=N)n(CC(=O)c2ccc(Cl)cc2)c2ccccc21 was tested. Which EC50 did it give?
Answer: 30.9 µM (inactive)

Question: Which EC50 does the source give for Cn1c(=N)n(CC(=O)c2ccc(F)cc2)c2ccccc21 here?
Answer: 34.5 µM (inactive)

Question: For C=CCNc1nc(-c2c[nH]c3ccccc23)cs1, which EC50 is on record?
Answer: 5.69 µM

Question: Which EC50 does the source give for c1ccc(CCNc2nc(-c3c[nH]c4ccccc34)cs2)cc1 here?
Answer: 5.13 µM

Question: For CCn1c(=N)n(CC(=O)c2ccc(Cl)c(Cl)c2)c2ccccc21, which EC50 is on record?
Answer: 25.2 µM (inactive)

Question: Which EC50 does the source give for CCC(C)Nc1nc(-c2c[nH]c3ccccc23)cs1 (centres undefined) here?
Answer: 7.05 µM

Question: Cn1c(=N)n(CC(=O)c2ccc(Cl)c(Cl)c2)c2ccccc21 was tested. Which EC50 did it give?
Answer: 26 µM (inactive)

Question: How did the EC50 turn out when N=c1n(CC(=O)c2ccc(Cl)c(Cl)c2)c2ccccc2n1Cc1ccccc1 was run?
Answer: 15.5 µM

Question: With C=CCn1c(=N)n(CC(=O)c2ccc(Cl)c(Cl)c2)c2ccccc21 as the compound, how does the EC50 read?
Answer: 33.3 µM (inactive)

Question: For CC(Cc1ccccc1)Nc1nc(-c2c[nH]c3ccccc23)cs1 (centres undefined), which EC50 is on record?
Answer: 8.68 µM

Question: CCn1c(=N)n(CC(=O)c2ccc(Cl)cc2)c2ccccc21 was tested. Which EC50 did it give?
Answer: 26.6 µM (inactive)
